From patent US11993599B2, “Therapeutic compounds” (Genentech, Inc., priority 2021, dated 2024) come the findings set out here.

Holding throughout (type): cell-based
Assay [1] has as its target T1, BRM (Homo sapiens, UniProt P51531). Put plainly: HiBIT nanoluciferase complementation screen for BRM degraders. The note with it: 18 hours, BRM-HiBIT KI Hela cells, luminescence normalized: DMSO only = 0%, no cells = −100%; for Median HiBiT activity 1 μM: compound 1 μM; for Median HiBiT activity 10 μM: compound 10 μM. The source says:
Example B-1: HiBIT Nanoluciferase Complementation Screen for BRM Degraders
To assess BRM degradation, compounds were screened for their effect of BRM levels using the HiBIT nanoluciferase complementation strategy developed at Promega. In brief, a HELA cell line that was genetically modified via CRISPR/CAS9 was used to fuse the HiBIT sequence at the 3′ end of BRM (BRM-HiBIT KI Hela). BRM protein levels were then detected using the Nano-Glo HiBIT lytic detection reagent (Promega).
The screened compounds were plated into a white 384-well plate at 10 μM and 1 μM in 25 nL DMSO using an Echo dispenser (Labcyte). BRM-HiBIT KI Hela cells were seeded in the compound plate at 5000 cell per well at 25 μl in DMEM growth media (containing 10% FBS, 1% Glutamax (GIBCO cat #31053-028), lx Penicillin-Streptomycin (ROCHE, cat #1107444001), 4.5 g/L D-Glucose, and no phenol red). After incubation with compounds for 18 hours at 37° C., cell viability was assessed by the addition of 5 μl Cell Titer-Fluor reagent (Promega). After 30 s of mixing on an orbital shaker, and 30 minutes incubation at 37° C., fluorescence was measured with an INFINITE F500 (Tecan) (380-400 nm excitation, 505 nm emission). Next, to assess BRM HiBIT levels, 30 μl of Nano-Glo HiBIT lytic detection reagent (Promega) containing 1:50 Nano-Glo HiBIT lytic substrate and 1:100 LgBIT protein per ml of lytic buffer was added. After shaking on an orbital shaker at 350 rpm for 10 minutes, luminescence was measured on the INFINITE F500 (Tecan). To assess compound effects, luminescence signal was normalized with the mean of wells treated with DMSO only set to 0% and the mean of wells containing no cells set to −100%. Note that, in Table 4, the “Compound Number” corresponds to that used in Table 1.
For orientation: HiBiT is a short tag that completes a luciferase, so light tracks the accessible tagged protein.

Assay [2] addresses T2, BRG1 (Homo sapiens, UniProt P51532).
T2 construct: either BRM primary antibody (Cell signaling Cat #11966) or BRG primary antibody (Abcam, ab 110641); endogenous in cells; host or cells: SW1573
As to the kind of experiment: Immunofluorescence assay for BRG1 degradation in SW1573 cells. The note with it: 20 hours incubation; for DC50: immunofluorescence mean nuclear signal, read-out: BRG1 IF Degradation IC50; for Dmax: SW1573, 20 h, normalized to a known degrader control, read-out: BRG1 IF Degradation Sinf (%). Put shortly:
(§1)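 After a 20 h incubation with test compound, SW1573 cells are fixed and stained for BRM or BRG1 plus Hoechst. Per-cell mean nuclear intensity, referenced to a degrader control, is fit concentration-dependently with unconstrained maximum for Dmax.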

Assay [3] has as its target T1, BRM. As to the kind of experiment: Immunofluorescence assay for BRM degradation in SW1573 cells. Also noted: treated overnight at 4° C. with either BRM primary antibody (Cell signaling Cat #11966) or BRG primary antibody; endogenous in cells; host or cells: SW1573. The note with it: 20 hours incubation; for DC50: immunofluorescence mean nuclear signal, read-out: BRM IF Degradation IC50; for BRM IF Degradation Sinf (%): normalized to a known degrader control. Put shortly: as §1

T1 sequence (P51531 whole entry): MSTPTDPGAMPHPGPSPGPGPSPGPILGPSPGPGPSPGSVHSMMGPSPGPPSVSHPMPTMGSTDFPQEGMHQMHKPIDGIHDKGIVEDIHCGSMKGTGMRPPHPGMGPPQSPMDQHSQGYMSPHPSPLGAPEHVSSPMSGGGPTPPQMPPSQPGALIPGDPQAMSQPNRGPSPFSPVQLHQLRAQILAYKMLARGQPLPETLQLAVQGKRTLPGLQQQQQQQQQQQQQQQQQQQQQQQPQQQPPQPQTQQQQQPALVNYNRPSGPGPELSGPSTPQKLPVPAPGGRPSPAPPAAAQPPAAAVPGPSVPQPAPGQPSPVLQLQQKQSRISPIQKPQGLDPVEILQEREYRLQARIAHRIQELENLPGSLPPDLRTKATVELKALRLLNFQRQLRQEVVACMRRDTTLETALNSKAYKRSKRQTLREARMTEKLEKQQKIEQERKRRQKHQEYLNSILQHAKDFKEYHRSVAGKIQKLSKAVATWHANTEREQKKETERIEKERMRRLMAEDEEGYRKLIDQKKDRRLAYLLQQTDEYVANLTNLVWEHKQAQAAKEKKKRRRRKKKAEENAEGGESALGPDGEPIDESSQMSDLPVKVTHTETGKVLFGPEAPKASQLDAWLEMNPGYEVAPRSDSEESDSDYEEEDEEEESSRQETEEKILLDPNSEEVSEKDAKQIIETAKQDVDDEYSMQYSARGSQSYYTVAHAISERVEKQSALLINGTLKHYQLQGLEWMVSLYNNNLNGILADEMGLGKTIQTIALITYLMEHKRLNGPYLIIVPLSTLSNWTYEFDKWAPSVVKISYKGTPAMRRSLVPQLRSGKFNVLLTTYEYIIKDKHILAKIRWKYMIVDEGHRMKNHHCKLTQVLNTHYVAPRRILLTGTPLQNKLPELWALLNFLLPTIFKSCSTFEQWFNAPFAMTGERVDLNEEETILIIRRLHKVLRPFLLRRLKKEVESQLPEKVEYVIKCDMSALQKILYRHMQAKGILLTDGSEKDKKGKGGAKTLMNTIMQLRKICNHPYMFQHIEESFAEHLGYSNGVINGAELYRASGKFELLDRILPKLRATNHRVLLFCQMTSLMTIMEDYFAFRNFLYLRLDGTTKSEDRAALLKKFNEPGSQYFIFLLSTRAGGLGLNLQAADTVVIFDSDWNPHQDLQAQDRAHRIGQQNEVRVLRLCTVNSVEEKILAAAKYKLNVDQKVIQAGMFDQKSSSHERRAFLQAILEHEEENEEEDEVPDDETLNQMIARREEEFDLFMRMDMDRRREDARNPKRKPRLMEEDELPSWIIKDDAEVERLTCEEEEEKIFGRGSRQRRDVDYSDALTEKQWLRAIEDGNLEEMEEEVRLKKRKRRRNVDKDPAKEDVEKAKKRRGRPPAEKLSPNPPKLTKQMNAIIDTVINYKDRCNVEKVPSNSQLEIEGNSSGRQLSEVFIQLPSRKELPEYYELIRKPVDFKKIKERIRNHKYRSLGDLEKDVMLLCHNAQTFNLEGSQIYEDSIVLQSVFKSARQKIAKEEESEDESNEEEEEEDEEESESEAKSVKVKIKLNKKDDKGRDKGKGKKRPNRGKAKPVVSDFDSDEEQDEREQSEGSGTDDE
T2 sequence (P51532 whole entry): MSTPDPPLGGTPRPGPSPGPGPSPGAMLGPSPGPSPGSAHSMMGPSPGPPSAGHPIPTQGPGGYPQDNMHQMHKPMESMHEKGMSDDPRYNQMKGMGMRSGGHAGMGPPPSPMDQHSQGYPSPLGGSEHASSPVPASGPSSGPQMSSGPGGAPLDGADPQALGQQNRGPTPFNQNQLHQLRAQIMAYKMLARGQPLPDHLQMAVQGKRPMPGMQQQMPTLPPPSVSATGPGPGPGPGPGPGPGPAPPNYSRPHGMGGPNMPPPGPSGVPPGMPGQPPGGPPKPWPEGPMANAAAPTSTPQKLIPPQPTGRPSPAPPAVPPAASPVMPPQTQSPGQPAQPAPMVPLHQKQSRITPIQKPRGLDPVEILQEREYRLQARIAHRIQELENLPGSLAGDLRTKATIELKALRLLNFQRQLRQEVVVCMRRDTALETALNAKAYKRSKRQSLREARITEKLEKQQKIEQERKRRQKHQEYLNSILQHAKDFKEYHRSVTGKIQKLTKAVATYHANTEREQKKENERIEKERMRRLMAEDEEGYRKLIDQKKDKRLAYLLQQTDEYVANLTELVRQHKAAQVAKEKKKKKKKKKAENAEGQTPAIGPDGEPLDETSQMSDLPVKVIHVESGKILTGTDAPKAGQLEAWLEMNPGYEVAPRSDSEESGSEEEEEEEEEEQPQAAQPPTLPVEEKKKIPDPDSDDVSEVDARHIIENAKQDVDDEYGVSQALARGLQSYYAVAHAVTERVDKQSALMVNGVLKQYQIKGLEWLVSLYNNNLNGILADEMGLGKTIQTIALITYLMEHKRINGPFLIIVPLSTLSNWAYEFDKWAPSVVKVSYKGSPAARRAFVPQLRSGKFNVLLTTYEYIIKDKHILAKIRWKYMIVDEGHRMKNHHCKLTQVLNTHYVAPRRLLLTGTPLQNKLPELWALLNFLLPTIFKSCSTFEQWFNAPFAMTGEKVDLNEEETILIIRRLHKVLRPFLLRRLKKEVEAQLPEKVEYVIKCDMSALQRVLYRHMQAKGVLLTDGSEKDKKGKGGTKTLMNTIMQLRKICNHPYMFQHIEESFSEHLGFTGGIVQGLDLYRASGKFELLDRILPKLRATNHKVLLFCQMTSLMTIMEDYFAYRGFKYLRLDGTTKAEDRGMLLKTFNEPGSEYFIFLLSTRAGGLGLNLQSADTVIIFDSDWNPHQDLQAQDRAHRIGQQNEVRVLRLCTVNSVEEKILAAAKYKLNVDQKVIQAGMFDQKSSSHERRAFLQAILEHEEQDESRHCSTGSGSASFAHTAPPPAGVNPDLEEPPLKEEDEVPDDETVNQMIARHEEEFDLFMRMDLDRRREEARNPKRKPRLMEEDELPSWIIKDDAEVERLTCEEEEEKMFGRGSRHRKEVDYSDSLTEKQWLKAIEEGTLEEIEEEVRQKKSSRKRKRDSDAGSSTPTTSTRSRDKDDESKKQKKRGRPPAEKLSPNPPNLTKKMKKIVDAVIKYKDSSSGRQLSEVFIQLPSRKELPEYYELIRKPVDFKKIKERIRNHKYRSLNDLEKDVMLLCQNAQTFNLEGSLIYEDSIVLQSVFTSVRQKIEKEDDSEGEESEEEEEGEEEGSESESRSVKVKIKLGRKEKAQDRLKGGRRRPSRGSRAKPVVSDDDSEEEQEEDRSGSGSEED

Consider `Nc1nnc(-c2ccccc2O)cc1N1CC2CCC(C1)N2c1ccnc(C#CCCN2CCNCC2)c1` [Compound 1, 2-(6-amino-5-(8-(2-(4-(piperazin-1-yl)but-1-yn-1-yl)pyridin-4-yl)-3,8-diazabicyclo[3.2.1]octan-3-yl)pyridazin-3-yl)phenol], for which, in assay [1], the “Median HiBiT activity 1 μM” value is reported as −87.0122% and the “Median HiBiT activity 10 μM” value is listed as −81.2914%. Moreover, in assay [2], the DC50 was over 100 nM and the Dmax lay in the range of 71 to 120%. Moreover, in assay [3], the DC50 lay in the range of 10 to 100 nM and the “BRM IF Degradation Sinf (%)” value is listed as “F (F indicates −71%-−120%)”.

Turning to `Nc1nnc(-c2ccccc2O)cc1N1CC2CCC(C1)N2c1ccnc(C#CCN2CCCC2)c1` [Compound 2, 2-(6-amino-5-(8-(2-(3-(pyrrolidin-1-yl)prop-1-yn-1-yl)pyridin-4-yl)-3,8-diazabicyclo[3.2.1]octan-3-yl)pyridazin-3-yl)phenol], in assay [1], the “Median HiBiT activity 1 μM” value is −73.6048% and the “Median HiBiT activity 10 μM” value is −28.0898%. In assay [2], the DC50 is under 10 nM and the Dmax was 30 to 70%. Further, in assay [3], the DC50 was under 10 nM and the “BRM IF Degradation Sinf (%)” value is “E (E indicates −30%-−70%)”.

As for `CN(CC#Cc1cc(N2C3CCC2CN(c2cc(-c4ccccc4O)nnc2N)C3)ccn1)CCO` [Compound 3, 2-(6-amino-5-(8-(2-(3-((2-hydroxyethyl)(methyl)amino)prop-1-yn-1-yl)pyridin-4-yl)-3,8-diazabicyclo[3.2.1]octan-3-yl)pyridazin-3-yl)phenol], in assay [1], the “Median HiBiT activity 1 μM” value is −68.4262% and the “Median HiBiT activity 10 μM” value is given as −39.6172%. Further, in assay [2], the DC50 lay in the range of 10 to 100 nM and the Dmax lay within 30 to 70%. For the same compound, in assay [3], the DC50 lay within 10 to 100 nM and the “BRM IF Degradation Sinf (%)” value is recorded as “E (E indicates −30%-−70%)”.

For the compound `Nc1nnc(-c2ccccc2O)cc1N1CC2CCC(C1)N2c1ccnc(C#CCOCCO)c1` [Compound 4, 2-(6-amino-5-(8-(2-(3-(2-hydroxyethoxy)prop-1-yn-1-yl)pyridin-4-yl)-3,8-diazabicyclo[3.2.1]octan-3-yl)pyridazin-3-yl)phenol], in assay [1], the “Median HiBiT activity 1 μM” value is −65.5436% and the “Median HiBiT activity 10 μM” value was −51.5968%. In assay [2], the DC50 lay within 10 to 100 nM and the Dmax lay within 0 to 30%. In addition, in assay [3], the DC50 was 10 to 100 nM and the “BRM IF Degradation Sinf (%)” value is “E (E indicates −30%-−70%)”.

For the compound `CCN(CC)CC#Cc1cc(N2C3CCC2CN(c2cc(-c4ccccc4O)nnc2N)C3)ccn1` [Compound 5, 2-(6-amino-5-(8-(2-(3-(diethylamino)prop-1-yn-1-yl)pyridin-4-yl)-3,8-diazabicyclo[3.2.1]octan-3-yl)pyridazin-3-yl)phenol], in assay [1], the “Median HiBiT activity 1 μM” value is listed as −63.6385% and the “Median HiBiT activity 10 μM” value is −31.0597%. In assay [2], the DC50 was under 10 nM and the Dmax lay in the range of 30 to 70%. In assay [3], the DC50 was under 10 nM and the “BRM IF Degradation Sinf (%)” value was “E (E indicates −30%-−70%)”.

Consider `Nc1nnc(-c2ccccc2O)cc1N1CC2CCC(C1)N2c1ccnc(C#CC2CNC2)c1` [Compound 6, 2-(6-amino-5-(8-(2-(azetidin-3-ylethynyl)pyridin-4-yl)-3,8-diazabicyclo[3.2.1]octan-3-yl)pyridazin-3-yl)phenol], for which, in assay [1], the “Median HiBiT activity 1 μM” value was −61.1458% and the “Median HiBiT activity 10 μM” value is recorded as −67.7912%. In assay [2], the DC50 was over 100 nM and the Dmax was in the range of 0 to 30%. In assay [3], the DC50 was in the range of 10 to 100 nM and the “BRM IF Degradation Sinf (%)” value is on record as “E (E indicates −30%-−70%)”.

In the case of `Nc1nnc(-c2ccccc2O)cc1N1CC2CCC(C1)N2c1ccnc(C#CC2CNCCO2)c1` (centres unmarked) [Compound 7, 2-(6-amino-5-(8-(2-(morpholin-2-ylethynyl)pyridin-4-yl)-3,8-diazabicyclo[3.2.1]octan-3-yl)pyridazin-3-yl)phenol], in assay [1], the “Median HiBiT activity 1 μM” value is given as −56.5569% and the “Median HiBiT activity 10 μM” value was −25.5864%. For the same compound, in assay [2], the DC50 was over 100 nM. Besides, in assay [3], the DC50 was under 10 nM and the “BRM IF Degradation Sinf (%)” value is “E (E indicates −30%-−70%)”.

As for `Nc1nnc(-c2ccccc2O)cc1N1CC2CCC(C1)N2c1ccnc(C#CCC2CCNC2)c1` (centres unmarked) [Compound 34, 2-(6-amino-5-(8-(2-(3-(pyrrolidin-3-yl)prop-1-yn-1-yl)pyridin-4-yl)-3,8-diazabicyclo[3.2.1]octan-3-yl)pyridazin-3-yl)phenol], in assay [1], the “Median HiBiT activity 1 μM” value is recorded as −7.217% and the “Median HiBiT activity 10 μM” value is given as −29.4355%. The DC50 in assay [3] was over 100 nM.

Turning to `CC1(O)CCCN(CC#Cc2cc(N3C4CCC3CN(c3cc(-c5ccccc5O)nnc3N)C4)ccn2)CC1` (centres unmarked) [Compound 244, 1-[3-[4-[3-[3-amino-6-(2-hydroxyphenyl)pyridazin-4-yl]-3,8-diazabicyclo[3.2.1]octan-8-yl]-2-pyridyl]prop-2-ynyl]-4-methyl-azepan-4-ol], in assay [2], the DC50 was under 10 nM and the Dmax is 30 to 70%. Moreover, in assay [3], the DC50 fell in the range of 10 to 100 nM and the “BRM IF Degradation Sinf (%)” value is “E (E indicates −30%-−70%)”.

Consider `Nc1nnc(-c2ccccc2O)cc1N1CC2CCC(C1)N2c1ccnc(C#CCN2CCCCCC2)n1` [Compound 245, 2-(6-amino-5-(8-(2-(3-(azepan-1-yl)prop-1-yn-1-yl)pyrimidin-4-yl)-3,8-diazabicyclo[3.2.1]octan-3-yl)pyridazin-3-yl)phenol], for which, in assay [2], the DC50 was under 10 nM and the Dmax was 30 to 70%. Moreover, in assay [3], the DC50 is under 10 nM and the “BRM IF Degradation Sinf (%)” value was “F (F indicates −71%-−120%)”.

Take `Nc1nnc(-c2ccccc2O)cc1N1CC2CCC(C1)N2c1cnnc(C#CCN2CCCCCC2)c1` [Compound 246, 2-(6-amino-5-(8-(6-(3-(azepan-1-yl)prop-1-yn-1-yl)pyridazin-4-yl)-3,8-diazabicyclo[3.2.1]octan-3-yl)pyridazin-3-yl)phenol]: in assay [2], the DC50 is under 10 nM and the Dmax lay in the range of 71 to 120%. In addition, in assay [3], the DC50 lay in the range of 10 to 100 nM and the “BRM IF Degradation Sinf (%)” value is given as “F (F indicates −71%-−120%)”.

In the case of `Nc1nnc(-c2ccccc2O)cc1N1CC2CCC(C1)N2c1cc(C#CCN2CCCCCC2)ncn1` [Compound 247, 2-(6-amino-5-(8-(6-(3-(azepan-1-yl)prop-1-yn-1-yl)pyrimidin-4-yl)-3,8-diazabicyclo[3.2.1]octan-3-yl)pyridazin-3-yl)phenol], in assay [2], the DC50 was under 10 nM and the Dmax was 71 to 120%. Moreover, in assay [3], the DC50 is under 10 nM and the “BRM IF Degradation Sinf (%)” value is reported as “F (F indicates −71%-−120%)”.

Regarding `Nc1nnc(-c2ccccc2O)cc1N1CCC2(CCN(c3ccnc(C#CCN4CCCCCC4)c3)CC2)CC1` [Compound 249, 2-(6-amino-5-(9-(2-(3-(azepan-1-yl)prop-1-yn-1-yl)pyridin-4-yl)-3,9-diazaspiro[5.5]undecan-3-yl)pyridazin-3-yl)phenol], the DC50 in assay [2] was over 100 nM. In assay [3], the DC50 was under 10 nM and the “BRM IF Degradation Sinf (%)” value is reported as “E (E indicates −30%-−70%)”.

In the case of `Nc1nnc(-c2ccccc2O)cc1N1CCC2(CCN(c3ccnc(C#CCN4CCCCCC4)c3)C2)CC1` [Compound 250, 2-(6-amino-5-(2-(2-(3-(azepan-1-yl)prop-1-yn-1-yl)pyridin-4-yl)-2,8-diazaspiro[4.5]decan-8-yl)pyridazin-3-yl)phenol], in assay [2], the DC50 was in the range of 10 to 100 nM and the Dmax is 30 to 70%. Further, in assay [3], the DC50 is under 10 nM and the “BRM IF Degradation Sinf (%)” value is “E (E indicates −30%-−70%)”.

For `Nc1nnc(-c2ccccc2O)cc1N1CC2(CN(c3ccnc(C#CCN4CCCCCC4)c3)C2)C1` [Compound 251, 2-[6-amino-5-[6-[2-[3-(azepan-1-yl)prop-1-ynyl]-4-pyridyl]-2,6-diazaspiro[3.3]heptan-2-yl]pyridazin-3-yl]phenol], in assay [2], the DC50 was in the range of 10 to 100 nM and the Dmax was 30 to 70%. In assay [3], the DC50 was under 10 nM and the “BRM IF Degradation Sinf (%)” value was “E (E indicates −30%-−70%)”.
